System: yeast genes (level of expressed mRNA)
Assay: DNA chip analysis of expressed mRNA of yeast genes after 2 h culture with a toxic chemical substance
Type: cell-based, Saccharomyces cerevisiae S288C
Conditions: for The level of expressed mRNA in the presence of chemical substance/ (ratio to absence of chemical substance): stress protein genes, DNA chip
Protocol: Yeast (Saccharomyces cerevtisiae S288C (α SUC2mal mel gap2 CUP1)) were cultured at 25° C. on YPD medium (yeast extract 1%, polypepton 2%, glucose 2%). One of toxic chemical substances was added to the cell at logarithmic growth phase, and the cell was further cultured for two hours. Cell was cultured without any chemical substance in the same condition, and was used as control. Concentrations of the chemical substances were defined to inhibit the growth of the yeast but not lead to death.
After the completion of cultivation, the culture was centrifuged to collect the cells. To the cells, sodium acetate buffer (50 mM sodium acetate, 10 mM EDTA, 1% SDS) was added, and the mixture was shaken at 65° C. for five minutes, followed by returning to room temperature, and obtaining the supernatant, which procedure was repeated two times. To the supernatant, ½ amount of a solution of phenol/chloroform was added, and the mixture was centrifuged to give a supernatant, which was added with an equal amount of chloroform, and the mixture was centrifuged to give a supernatant. To the supernatant, an equal amount of isopropanol containing 0.3 M sodium acetate was added, and the mixture was allowed to stand at room temperature for 30 minutes, after which the mixture was centrifuged to give a sediment of the whole RNAs. Seventy % ethanol was added to the sediment, and the mixture was again centrifuged to give a sediment, which was then dried and dissolved in water. mRNA was isolated from the whole RNAs as followings. In view of the fact that a poly A chain is attached to the 3′ terminus of mRNA, a polynucleotide having a poly T structure which was immobilized on the surface of latex beads was used to trap the mRNA, and then the mRNA was washed and eluted with spine column (Oligotex-dT30<Super>mRNA Purification Kit, Takara). Reverse transcription of the mRNA was conducted with a reverse transcriptase (Super Script II Reverse Transcriptase; catalogue No. 18064-014, GibcoBRL) using fluorescence-labeled nucleotides to give cDNAs that were introduced with Cy3-dUTP or Cy5-dUTP during the reverse transcription.
The labeled cDNAs were dissolved in TE buffer (10 mM Tris-HCl/1 mM EDTA, pH8.0), and the solution was dropped on the DNA chip containing the whole genes of yeast (DNA Chip Research Inc. Japan) so that the cDNAs were hybridized on the DNA chip at 65° C. for over 12 hours. The fluoresces intensity of the DNA chip was read with a scanner, and the ratio relative to the fluorescence intensity resulting from the absence of chemical substance was estimated as the following, which is shown in Tables 1 to 9: [formula]
In the Tables, “Intensity” indicated in the rightmost column is a value of the level of expressed mRNA of each gene in control cells as divided by the average level of the expressions of the whole genes.

C=CC=O [(14), acrolein]
The level of expressed mRNA in the presence of chemical substance/The level of expressed mRNA in the absence of chemical substance (yeast gene YIL140W): 0.9 | The level of expressed mRNA in the presence of chemical substance/ (in its absence), gene YJL070C (yeast gene YJL070C, ratio of DNA chip fluorescence intensity to that without chemical substance): 1.3 | The level of expressed mRNA in the presence of chemical substance/The level of expressed mRNA in the absence of chemical substance (yeast gene YJL073W): 1.1 | The level of expressed mRNA in the presence of chemical substance/The level of expressed mRNA in the absence of chemical substance (yeast gene YJL089W): 1.8 | The level of expressed mRNA in the presence of chemical substance/ (ratio to absence), gene YJL096W (yeast gene YJL096W, mitochondria-located protein genes, 2 h culture with chemical): 2.1 | The level of expressed mRNA in the presence of chemical substance/The level of expressed mRNA in the absence of chemical substance (yeast gene YJL116C): 2.6 | The level of expressed mRNA in the presence of chemical substance/ (ratio to absence of chemical substance) (yeast gene YJL158C): 0.5 | The level of expressed mRNA in the presence of chemical substance/ (in its absence), gene YJL167W (yeast gene YJL167W, ratio of DNA chip fluorescence intensity to that without chemical substance): 0.9 | The level of expressed mRNA in the presence of chemical substance/ (ratio to absence), gene YJL180C (yeast gene YJL180C, mitochondria-located protein genes, 2 h culture with chemical): 1.4 | The level of expressed mRNA in the presence of chemical substance/ (in its absence), gene YJL216C (yeast gene YJL216C, ratio of DNA chip fluorescence intensity to that without chemical substance): 1.1 | The level of expressed mRNA in the presence of chemical substance/The level of expressed mRNA in the absence of chemical substance (yeast gene YJR004C): 0.7 | The level of expressed mRNA in the presence of chemical substance/The level of expressed mRNA in the absence of chemical substance (yeast gene YJR086W): 2.2 | The level of expressed mRNA in the presence of chemical substance/ (ratio to absence of chemical substance) (yeast gene YJR090C): 1.0 | The level of expressed mRNA in the presence of chemical substance/The level of expressed mRNA in the absence of chemical substance (yeast gene YKL008C): 0.8 | The level of expressed mRNA in the presence of chemical substance/The level of expressed mRNA in the absence of chemical substance (yeast gene YKL013C): 1.4 | The level of expressed mRNA in the presence of chemical substance/The level of expressed mRNA in the absence of chemical substance (yeast gene YKL039W): 0.8 | The level of expressed mRNA in the presence of chemical substance/The level of expressed mRNA in the absence of chemical substance (yeast gene YKL041W): 1.3 | The level of expressed mRNA in the presence of chemical substance/The level of expressed mRNA in the absence of chemical substance (yeast gene YKL096W): 0.5 | The level of expressed mRNA in the presence of chemical substance/ (ratio to absence of chemical substance) (yeast gene YKL164C): 0.3 | The level of expressed mRNA in the presence of chemical substance/The level of expressed mRNA in the absence of chemical substance (yeast gene YKL165C): 0.8 | The level of expressed mRNA in the presence of chemical substance/The level of expressed mRNA in the absence of chemical substance (yeast gene YKL193C): 1.2 | The level of expressed mRNA in the presence of chemical substance/ (in its absence), gene YKR009C (yeast gene YKR009C, ratio of DNA chip fluorescence intensity to that without chemical substance): 1.0 | The level of expressed mRNA in the presence of chemical substance/ (in its absence), gene YKR034W (yeast gene YKR034W, ratio of DNA chip fluorescence intensity to that without chemical substance): 1.1 | The level of expressed mRNA in the presence of chemical substance/ (ratio to absence of chemical substance) (yeast gene YKR053C): 1.3 | The level of expressed mRNA in the presence of chemical substance/ in its absence, gene YKR058W (yeast gene YKR058W, energy system protein genes, 2 h culture with the chemical, ratio to control without chemical): 1.3 | The level of expressed mRNA in the presence of chemical substance/ (in its absence), gene YLR006C (yeast gene YLR006C, ratio of DNA chip fluorescence intensity to that without chemical substance): 1.0 | The level of expressed mRNA in the presence of chemical substance/ (ratio to absence of chemical substance) (yeast gene YLR006C): 1.0 | The level of expressed mRNA in the presence of chemical substance/The level of expressed mRNA in the absence of chemical substance (yeast gene YLR120C): 0.8 | The level of expressed mRNA in the presence of chemical substance/The level of expressed mRNA in the absence of chemical substance (yeast gene YLR136C): 0.7 | The level of expressed mRNA in the presence of chemical substance/The level of expressed mRNA in the absence of chemical substance (yeast gene YLR178C): 2.8 | The level of expressed mRNA in the presence of chemical substance/The level of expressed mRNA in the absence of chemical substance (yeast gene YLR250W): 2.5 | The level of expressed mRNA in the presence of chemical substance/ in its absence, gene YLR295C (yeast gene YLR295C, energy system protein genes, 2 h culture with the chemical, ratio to control without chemical): 1.2 | The level of expressed mRNA in the presence of chemical substance/ (ratio to absence), gene YLR295C (yeast gene YLR295C, mitochondria-located protein genes, 2 h culture with chemical): 1.2 | The level of expressed mRNA in the presence of chemical substance/The level of expressed mRNA in the absence of chemical substance (yeast gene YLR327C): 1.5 | The level of expressed mRNA in the presence of chemical substance/ (in its absence), gene YLR351C (yeast gene YLR351C, ratio of DNA chip fluorescence intensity to that without chemical substance): 1.4 | The level of expressed mRNA in the presence of chemical substance/The level of expressed mRNA in the absence of chemical substance (yeast gene YLR356W): 2.2 | The level of expressed mRNA in the presence of chemical substance/The level of expressed mRNA in the absence of chemical substance (yeast gene YLR362W): 1.2 | The level of expressed mRNA in the presence of chemical substance/ (in its absence), gene YLR375W (yeast gene YLR375W, ratio of DNA chip fluorescence intensity to that without chemical substance): 0.9 | The level of expressed mRNA in the presence of chemical substance/The level of expressed mRNA in the absence of chemical substance (yeast gene YLR391W): 0.5 | The level of expressed mRNA in the presence of chemical substance/The level of expressed mRNA in the absence of chemical substance (yeast gene YLR429W): 0.7 | The level of expressed mRNA in the presence of chemical substance/ in its absence, gene YML129C (yeast gene YML129C, energy system protein genes, 2 h culture with the chemical, ratio to control without chemical): 1.4 | The level of expressed mRNA in the presence of chemical substance/ (ratio to absence), gene YML129C (yeast gene YML129C, mitochondria-located protein genes, 2 h culture with chemical): 1.4 | The level of expressed mRNA in the presence of chemical substance/The level of expressed mRNA in the absence of chemical substance (yeast gene YMR004W): 2.2 | The level of expressed mRNA in the presence of chemical substance/ (ratio to absence), gene YMR023C (yeast gene YMR023C, mitochondria-located protein genes, 2 h culture with chemical): 1.6 | The level of expressed mRNA in the presence of chemical substance/The level of expressed mRNA in the absence of chemical substance (yeast gene YMR094W): 2.8 | The level of expressed mRNA in the presence of chemical substance/The level of expressed mRNA in the absence of chemical substance (yeast gene YMR104C): 1.1 | The level of expressed mRNA in the presence of chemical substance/ (ratio to absence of chemical substance) (yeast gene YMR186W): 0.6 | The level of expressed mRNA in the presence of chemical substance/The level of expressed mRNA in the absence of chemical substance (yeast gene YMR219W): 0.5 | The level of expressed mRNA in the presence of chemical substance/The level of expressed mRNA in the absence of chemical substance (yeast gene YMR226C): 1.6 | The level of expressed mRNA in the presence of chemical substance/ in its absence, gene YMR267W (yeast gene YMR267W, energy system protein genes, 2 h culture with the chemical, ratio to control without chemical): 1.0 | The level of expressed mRNA in the presence of chemical substance/ (ratio to absence), gene YMR267W (yeast gene YMR267W, mitochondria-located protein genes, 2 h culture with chemical): 1.0 | The level of expressed mRNA in the presence of chemical substance/ in its absence, gene YMR267W (yeast gene YMR267W, ratio of DNA chip fluorescence intensity to that without chemical substance): 1.0 | The level of expressed mRNA in the presence of chemical substance/The level of expressed mRNA in the absence of chemical substance (yeast gene YMR275C): 0.8 | The level of expressed mRNA in the presence of chemical substance/The level of expressed mRNA in the absence of chemical substance (yeast gene YMR276W): 1.2 | The level of expressed mRNA in the presence of chemical substance/ (in its absence), gene YMR278W (yeast gene YMR278W, ratio of DNA chip fluorescence intensity to that without chemical substance): 0.8 | The level of expressed mRNA in the presence of chemical substance/ (in its absence), gene YMR293C (yeast gene YMR293C, ratio of DNA chip fluorescence intensity to that without chemical substance): 1.3 | The level of expressed mRNA in the presence of chemical substance/The level of expressed mRNA in the absence of chemical substance (yeast gene YMR314W): 1.0

Reference: patent publication US20050112573A1, “Method of detecting toxic substance” (priority 2001, published 2005)
